Experimental data reported in patent US10934310B2, “Inhibitors of Bruton's tyrosine kinase and method of their use” (JANSSEN PHARMACEUTICA NV, priority 2015, dated 2021).

Each molecule was assayed against unphosphorylated-BTK kinase domain (UP-BTK), GST-tagged human BTK (389-659aa) (Homo sapiens (Human), UniProt Q06187) (assay: BTK Kinase Lanthascreen Binding Assay). Settings: compound, 50 nM Tracer 236, 2 nM anti-GST antibody, 60 minutes; pIC50 = negative log of the IC50 in molar.
Experimental: BTK Kinase Lanthascreen Binding Assay:
A BTK kinase lanthascreen binding assay monitors compound binding to unphosphorylated-BTK kinase domain (UP-BTK), by competing with a fluorescent labeled tracer. […] Data were analyzed using Xlfit™ version 5.3 from ID Business Solutions (Guildford), Microsoft Excel add-in. pIC50 refers to the negative log of the IC50 in molar.

Chain of unphosphorylated-BTK kinase domain (UP-BTK), GST-tagged human BTK (389-659aa) (Q06187 389-659): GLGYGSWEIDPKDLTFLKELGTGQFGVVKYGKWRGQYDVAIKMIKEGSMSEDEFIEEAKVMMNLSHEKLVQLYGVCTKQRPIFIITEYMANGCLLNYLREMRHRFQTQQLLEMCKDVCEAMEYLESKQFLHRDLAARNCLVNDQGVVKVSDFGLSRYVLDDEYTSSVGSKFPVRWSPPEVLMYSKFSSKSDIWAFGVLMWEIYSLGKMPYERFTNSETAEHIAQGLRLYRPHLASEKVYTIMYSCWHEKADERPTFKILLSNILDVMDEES

SMILES	BTK_I_binding pIC50
Cc1cc(Oc2ccccc2)ccc1N1C(=O)Nc2c(C(=O)N[C@H]3CC[C@@H](N(C)C)CC3)sc3nccc1c23 [Example 66, N-((1S,4S)-4-(Dimethylamino)cyclohexyl)-5-(2-methyl-4-phenoxyphenyl)-4-oxo-4,5-dihydro-3H-1-thia-3,5,8-triazaacenaphthylene-2-carboxamide]	6.56
CCC(=O)N[C@@H]1CC[C@H](NC(=O)c2sc3nccc4c3c2NC(=O)N4c2ccc(Oc3ccccc3)cc2C)C1 [Example 69, 5-(2-Methyl-4-phenoxyphenyl)-4-oxo-N-((1S,3R)-3-propionamidocyclopentyl)-4,5-dihydro-3H-1-thia-3,5,8-triazaacenaphthylene-2-carboxamide]	7.73
CC(=O)N[C@@H]1CC[C@H](NC(=O)c2sc3nccc4c3c2NC(=O)N4c2ccc(Oc3ccccc3)cc2C)C1 [Example 70, N-((1S,3R)-3-Acetamidocyclopentyl)-5-(2-methyl-4-phenoxyphenyl)-4-oxo-4,5-dihydro-3H-1-thia-3,5,8-triazaacenaphthylene-2-carboxamide]	7.69
Cc1cc(Oc2ccccc2)ccc1N1C(=O)Nc2c(C(=O)N[C@H]3CC[C@@H](N)C3)sc3nccc1c23 [Example 76, N-((1S,3R)-3-Aminocyclopentyl)-5-(2-methyl-4-phenoxyphenyl)-4-oxo-4,5-dihydro-3H-1-thia-3,5,8-triazaacenaphthylene-2-carboxamide]	6.88
Cc1cc(Oc2ccccc2)ccc1N1C(=O)Nc2c(C(=O)NC3CCCC3)sc3nccc1c23 [Example 82, N-Cyclopentyl-5-(*R)-(2-methyl-4-phenoxyphenyl)-4-oxo-4,5-dihydro-3H-1-thia-3,5,8-triazaacenaphthylene-2-carboxamide]	5.35
N[C@@H]1CCC[C@@H]1NC(=O)c1sc2nccc3c2c1NC(=O)N3c1ccc(Oc2ccccc2)cc1 [Example 98, N-((1S,2R)-2-Aminocyclopentyl)-4-oxo-5-(4-phenoxyphenyl)-4,5-dihydro-3H-1-thia-3,5,8-triazaacenaphthylene-2-carboxamide]	6.10
Cc1cc(Oc2ccccc2)ccc1N1C(=O)Nc2c(C(=O)N[C@H]3CC[C@@H](N(C)C)CC3)sc3nccc1c23 [Example 99, N-((1S,4S)-4-(Dimethylamino)cyclohexyl)-5-(*S)-(2-methyl-4-phenoxyphenyl)-4-oxo-4,5-dihydro-3H-1-thia-3,5,8-triazaacenaphthylene-2-carboxamide]	7.03
Cc1cc(Oc2ccccc2)ccc1N1C(=O)Nc2c(C(=O)N[C@H]3CC[C@@H](N(C)C)CC3)sc3nccc1c23 [Example 100, N-((1S,4S)-4-(Dimethylamino)cyclohexyl)-5-(*R)-(2-methyl-4-phenoxyphenyl)-4-oxo-4,5-dihydro-3H-1-thia-3,5,8-triazaacenaphthylene-2-carboxamide]	5.86
C=CC(=O)N[C@H]1CCCC[C@H]1NC(=O)c1sc2nccc3c2c1NC(=O)N3c1ccc(Oc2ccccc2)cc1 [Example 118, N-((1R,2S)-2-Acrylamidocyclohexyl)-4-oxo-5-(4-phenoxyphenyl)-4,5-dihydro-3H-1-thia-3,5,8-triazaacenaphthylene-2-carboxamide]	8.12

Continued, values first:

BTK_I_binding pIC50	SMILES
7.78	C=CC(=O)N[C@@H]1CC[C@H](NC(=O)c2sc3nccc4c3c2NC(=O)N4c2ccc(Oc3ccccc3)cc2C)C1 [Example 68, N-((1S,3R)-3-acrylamidocyclopentyl)-5-(2-methyl-4-phenoxyphenyl)-4-oxo-4,5-dihydro-3H-1-thia-3,5,8-triazaacenaphthylene-2-carboxamide]
7.38	Cc1cc(Oc2ccccc2)ccc1N1C(=O)Nc2c(C(=O)N[C@H]3CC[C@@H](NC(=O)CN(C)C)C3)sc3nccc1c23 [Example 71, N-((1S,3R)-3-(2-(Dimethylamino)acetamido)cyclopentyl)-5-(2-methyl-4-phenoxyphenyl)-4-oxo-4,5-dihydro-3H-1-thia-3,5,8-triazaacenaphthylene-2-carboxamide]
7.02	CNCC(=O)N[C@@H]1CC[C@H](NC(=O)c2sc3nccc4c3c2NC(=O)N4c2ccc(Oc3ccccc3)cc2C)C1 [Example 72, 5-(2-Methyl-4-phenoxyphenyl)-N-((1S,3R)-3-(2-(methylamino)acetamido)cyclopentyl)-4-oxo-4,5-dihydro-3H-1-thia-3,5,8-triazaacenaphthylene-2-carboxamide]
7.00	Cc1cc(Oc2ccccc2)ccc1N1C(=O)Nc2c(C(=O)N[C@H]3CC[C@@H](N(C)C)C3)sc3nccc1c23 [Example 73, N-((1S,3R)-3-(Dimethylamino)cyclopentyl)-5-(2-methyl-4-phenoxyphenyl)-4-oxo-4,5-dihydro-3H-1-thia-3,5,8-triazaacenaphthylene-2-carboxamide]
7.07	Cc1cc(Oc2ccccc2)ccc1N1C(=O)Nc2c(C(=O)N[C@H]3CC[C@@H](O)C3)sc3nccc1c23 [Example 74, N-((1S,3R)-3-Hydroxycyclopentyl)-5-(2-methyl-4-phenoxyphenyl)-4-oxo-4,5-dihydro-3H-1-thia-3,5,8-triazaacenaphthylene-2-carboxamide]
7.30	Cc1cc(Oc2ccccc2)ccc1N1C(=O)Nc2c(C(=O)N[C@H]3CC[C@@H](NC(=O)CN)C3)sc3nccc1c23 [Example 75, N-((1S,3R)-3-(2-Aminoacetamido)cyclopentyl)-5-(2-methyl-4-phenoxyphenyl)-4-oxo-4,5-dihydro-3H-1-thia-3,5,8-triazaacenaphthylene-2-carboxamide]
6.61	Cc1cc(Oc2ccccc2)ccc1N1C(=O)Nc2c(C(=O)N[C@H]3CC[C@@H](NC(=O)/C=C/CN(C)C)CC3)sc3nccc1c23 [Example 77, N-((1S,4S)-4-((E)-4-(Dimethylamino)but-2-enamido)cyclohexyl)-5-(2-methyl-4-phenoxyphenyl)-4-oxo-4,5-dihydro-3H-1-thia-3,5,8-triazaacenaphthylene-2-carboxamide]
6.55	CNC/C=C/C(=O)N[C@H]1CC[C@@H](NC(=O)c2sc3nccc4c3c2NC(=O)N4c2ccc(Oc3ccccc3)cc2C)CC1 [Example 78, 5-(2-Methyl-4-phenoxyphenyl)-N-((1S,4S)-4-((E)-4-(methylamino)but-2-enamido)cyclohexyl)-4-oxo-4,5-dihydro-3H-1-thia-3,5,8-triazaacenaphthylene-2-carboxamide]
6.47	Cc1cc(Oc2ccccc2)ccc1N1C(=O)Nc2c(C(=O)N[C@H]3CC[C@@H](NC(=O)/C=C/CN)CC3)sc3nccc1c23 [Example 79, N-((1S,4S)-4-((E)-4-Aminobut-2-enamido)cyclohexyl)-5-(2-methyl-4-phenoxyphenyl)-4-oxo-4,5-dihydro-3H-1-thia-3,5,8-triazaacenaphthylene-2-carboxamide]
7.03	Cc1cc(Oc2ccccc2)ccc1N1C(=O)Nc2c(C(=O)NC3CCCC3)sc3nccc1c23 [Example 81, N-Cyclopentyl-5-(*S)-(2-methyl-4-phenoxyphenyl)-4-oxo-4,5-dihydro-3H-1-thia-3,5,8-triazaacenaphthylene-2-carboxamide]
7.31	N[C@@H]1CCC[C@H]1NC(=O)c1sc2nccc3c2c1NC(=O)N3c1ccc(Oc2ccccc2)cc1 [Example 91, N-((1R,2R)-2-Aminocyclopentyl)-4-oxo-5-(4-phenoxyphenyl)-4,5-dihydro-3H-1-thia-3,5,8-triazaacenaphthylene-2-carboxamide]
7.70	N[C@H]1CCC[C@H]1NC(=O)c1sc2nccc3c2c1NC(=O)N3c1ccc(Oc2ccccc2)cc1 [Example 97, N-((1R,2S)-2-Aminocyclopentyl)-4-oxo-5-(4-phenoxyphenyl)-4,5-dihydro-3H-1-thia-3,5,8-triazaacenaphthylene-2-carboxamide]
8.37	C=CC(=O)N[C@H]1CCC[C@H]1NC(=O)c1sc2nccc3c2c1NC(=O)N3c1ccc(Oc2ccccc2)cc1 [Example 104, N-((1R,2S)-2-acrylamidocyclopentyl)-4-oxo-5-(4-phenoxyphenyl)-4,5-dihydro-3H-1-thia-3,5,8-triazaacenaphthylene-2-carboxamide]
8.06	C=CC(=O)N[C@H]1CCCC[C@H]1NC(=O)c1sc2nccc3c2c1NC(=O)N3c1cccc(-c2ccccc2)c1 [Example 106, 5-([1,1′-Biphenyl]-3-yl)-N-((1R,2S)-2-acrylamidocyclohexyl)-4-oxo-4,5-dihydro-3H-1-thia-3,5,8-triazaacenaphthylene-2-carboxamide]
7.23	C=CC(=O)N[C@@H]1CC[C@H](NC(=O)c2sc3nccc4c3c2NC(=O)N4c2ccc(OC(C)C)cc2C)C1 [Example 110, N-((1S,3R)-3-Acrylamidocyclopentyl)-5-(4-isopropoxy-2-methylphenyl)-4-oxo-4,5-dihydro-3H-1-thia-3,5,8-triazaacenaphthylene-2-carboxamide]

Same assay, conditions: read-out: BTK_I_binding pIC50 (converted)

SMILES	IC50 [nM]
Cc1cc(Oc2ccccc2)ccc1N1C(=O)Nc2c(C(=O)N[C@H]3CC[C@H](O)CC3)sc3nccc1c23 [Example 86, N-((1R,4R)-4-Hydroxycyclohexyl)-5-(*R)-(2-methyl-4-phenoxyphenyl)-4-oxo-4,5-dihydro-3H-1-thia-3,5,8-triazaacenaphthylene-2-carboxamide]	229
C=CC(=O)N[C@@H]1CC[C@H](NC(=O)c2sc3nccc4c3c2NC(=O)N4c2ccc(Oc3ccccc3)cc2)C1 [Example 117, N-((1S,3R)-3-Acrylamidocyclopentyl)-4-oxo-5-(4-phenoxyphenyl)-4,5-dihydro-3H-1-thia-3,5,8-triazaacenaphthylene-2-carboxamide]	15.8
